# In paper PMC12179616, “Novel and efficient synthesis of 5-chloro-6-methoxy-3-(2-((1-(aryl)-1H-1,2,3-triazol-4-yl)methoxy)ethyl)benzo[d]isoxazole derivatives as new α-glucosidase inhibitors” (Biochemistry and Biophysics Reports, 2025):
# “And” between values parts separate entries of the source, which are not always exact repeats. Equal entries are not always repeated.
# Columns and labels:
# [1] = tested on: Bacillus cereus (MTCC2128); assay: Antibacterial activity, agar well diffusion; assay type: cell-based; settings: for zone of inhibition / inhibition in words: 25 μl
# Experimental: (§1) The antibacterial activity was determined by using the agar well diffusion method [[50], [51], [52]]. Two bacterial strains were used to evaluate the antibacterial efficacy of the synthesized compounds: one Gram-positive strain, Bacillus cereus (MTCC2128), and one Gram-negative strain, Escherichia coli (MTCC2412). Sterilized Mueller Hinton Broth (MHB) was used to cultivate the bacterial strains, and the mixture was incubated for 18 h at 37 °C. To evaluate the antibacterial activity, the inhibition zone (RIZ) radius encircled each well was determined in millimeters. The experiments were carried out duplicates. The incubation period for the plates was from 72 to 96 h at a temperature of 37 °C. The zone of inhibition was then looked for on the plates.
# [2] = tested on: Escherichia coli (MTCC2412); assay: Antibacterial activity, agar well diffusion; assay type: cell-based
# Experimental: as §1
# α-glucosidase = settings: Fig. 1; cited from earlier work
SMILES,zone of inhibition [1],inhibition in words [1],other results
"COc1cc2onc(CCOCc3cn(-c4cccc(Cl)c4)nn3)c2cc1Cl [Compound 9c, 5-Chloro-3-(2-((1-(3-chlorophenyl)-1H-1,2,3-triazol-4-yl)methoxy)ethyl)-6-methoxybenzo[d]isoxazole]",0.4 mm,,
"COc1cc2onc(CCOCc3cn(-c4ccccc4C)nn3)c2cc1Cl [Compound 9f, 5-Chloro-6-methoxy-3-(2-((1-(o-tolyl)-1H-1,2,3-triazol-4-yl)methoxy)ethyl)benzo[d] isoxazole]",0.5 mm,,antibacterial activity in words [1]: showed antibacterial activity
"COc1cc2onc(CCOCc3cn(-c4ccccc4OC)nn3)c2cc1Cl [Compound 9g, 5-Chloro-6-methoxy-3-(2-((1-(2-methoxyphenyl)-1H-1,2,3-triazol-4-yl)methoxy)ethyl) benzo[d]isoxazole]",,,zone of inhibition ([2]; 75 μl): 0.9 mm; zone of inhibition ([2]; 100 μl): 1.2 mm
"COc1ccc(-n2cc(COCCc3noc4cc(OC)c(Cl)cc34)nn2)cc1 [Compound 9h, 5-Chloro-6-methoxy-3-(2-((1-(4-methoxyphenyl)-1H-1,2,3-triazol-4-yl)methoxy)ethyl) benzo[d]isoxazole]",0.5 mm,,antibacterial activity in words [1]: showed antibacterial activity
"COc1cc2onc(CCOCc3cn(-c4ccc(Br)c(F)c4)nn3)c2cc1Cl [Compound 9i, 3-(2-((1-(4-Bromo-3-fluorophenyl)-1H-1,2,3-triazol-4-yl)methoxy)ethyl)-5-chloro-6-methoxybenzo[d]isoxazole]",,moderate inhibition,
"COc1cc2onc(CCOCc3cn(-c4ccc(F)cc4)nn3)c2cc1Cl [Compound 9j, 5-Chloro-3-(2-((1-(4-fluorophenyl)-1H-1,2,3-triazol-4-yl)methoxy)ethyl)-6-methoxy benzo[d]isoxazole]",,moderate inhibition,
"COc1cc2onc(CCOCc3cn(-c4ccccc4C(F)(F)F)nn3)c2cc1Cl [Compound 9k, 5-Chloro-6-methoxy-3-(2-((1-(2-(trifluoromethyl)phenyl)-1H-1,2,3-triazol-4-yl)methoxy)ethyl)benzo[d]isoxazole]",,moderate inhibition,
"COc1cc2onc(CCOCc3cn(-c4ccc(C(F)(F)F)cc4)nn3)c2cc1Cl [Compound 9l, 5-chloro-6-methoxy-3-(2-((1-(4-(trifluoromethyl)phenyl)-1H-1,2,3-triazol-4-yl)methoxy)ethyl)benzo[d]isoxazole]",0.5 mm and 0.4 mm,,antibacterial activity in words [1]: showed antibacterial activity
"COc1cc2onc(CCOCc3cn(-c4ccc(C)c(C)c4)nn3)c2cc1Cl [Compound 9m, 5-Chloro-3-(2-((1-(3,4-dimethylphenyl)-1H-1,2,3-triazol-4-yl)methoxy)ethyl)-6-methoxy benzo[d]isoxazole]",,moderate inhibition,
"COc1cc2onc(CCOCc3cn(-c4ccc(Br)cc4)nn3)c2cc1Cl [Compound 9n, 3-(2-((1-(4-Bromophenyl)-1H-1,2,3-triazol-4-yl)methoxy)ethyl)-5-chloro-6-methoxy benzo[d]isoxazole]",,moderate inhibition,
"COc1cc2onc(CCOCc3cn(-c4ccc(Br)c(C(F)(F)F)c4)nn3)c2cc1Cl [Compound 9o, 3-(2-((1-(4-Bromo-3-(trifluoromethyl)phenyl)-1H-1,2,3-triazol-4-yl)methoxy)ethyl)-5-chloro-6-methoxybenzo[d]isoxazole]",,moderate inhibition,
O=C1Nc2ccccc2/C1=N/N=C/c1ccc(OCc2cn(Cc3ccccc3F)nn2)cc1 [III],,,IC50 (α-glucosidase): 16.4 µM
O=c1oc2ccccc2c(O)c1C(c1ccc(OCc2cn(-c3ccccc3Cl)nn2)cc1)c1c(O)c2ccccc2oc1=O [I],,,IC50 (α-glucosidase): 13 µM
